Source: the CheMixHub viscosity set
± gives the uncertainty stated by the source.

Test: xn = mol fraction of the nth substance listed

CCCCN + C1CCCCC1
viscosity [mPa·s], 101 kPa
Conditions	303.15 K	313.15 K
x1 = 0.00966	0.8095 ± 0.0056	0.7083 ± 0.005
x1 = 0.01973	0.8005 ± 0.0055	0.6998 ± 0.005
x1 = 0.02822	0.7907 ± 0.0055	0.6925 ± 0.0049
x1 = 0.03804	0.7823 ± 0.0054	0.6831 ± 0.0049
x1 = 0.04713	0.7702 ± 0.0053	0.6749 ± 0.0049
x1 = 0.05811	0.758 ± 0.0053	0.6646 ± 0.0048
x1 = 0.0674	0.7469 ± 0.0052	0.6553 ± 0.0048
x1 = 0.07236	0.7374 ± 0.0052	0.6487 ± 0.0047
x1 = 0.08731	0.7267 ± 0.0051	0.637 ± 0.0047
x2 = 0.1009	0.453 ± 0.009	–
x2 = 0.2007	0.467 ± 0.009	–
x2 = 0.3012	0.492 ± 0.01	–
x2 = 0.3987	0.501 ± 0.01	–
x2 = 0.4982	0.529 ± 0.011	–
x2 = 0.5729	0.553 ± 0.011	–
x2 = 0.7003	0.601 ± 0.012	–
x2 = 0.7863	0.652 ± 0.013	–
x2 = 0.8993	0.725 ± 0.015	–

CCCCN + COC(C)=O
303.15 K, 101 kPa
Conditions	viscosity [mPa·s]
x1 = 0.1441	0.4159 ± 0.0052
x1 = 0.2526	0.4351 ± 0.0054
x1 = 0.35	0.4469 ± 0.0056
x1 = 0.454	0.4552 ± 0.0057
x1 = 0.5721	0.458 ± 0.0057
x1 = 0.686	0.4596 ± 0.0057
x1 = 0.7578	0.4709 ± 0.0058
x1 = 0.8757	0.4985 ± 0.0062

CC[N+](=O)[O-] + CC(C)O
viscosity [mPa·s], 101.33 kPa
Conditions	293.15 K	303.15 K	313.15 K
x2 = 0.0501	0.68 ± 0.014	0.605 ± 0.013	0.536 ± 0.011
x2 = 0.1	0.672 ± 0.014	0.595 ± 0.013	0.53 ± 0.011
x2 = 0.15	0.671 ± 0.014	0.592 ± 0.012	0.526 ± 0.011
x2 = 0.2	0.678 ± 0.014	0.594 ± 0.012	0.526 ± 0.011
x2 = 0.25	0.698 ± 0.015	0.601 ± 0.013	0.53 ± 0.011
x2 = 0.3	0.707 ± 0.015	0.613 ± 0.013	0.538 ± 0.011
x2 = 0.35	0.729 ± 0.015	0.628 ± 0.013	0.546 ± 0.011
x2 = 0.4	0.766 ± 0.016	0.647 ± 0.014	0.559 ± 0.012
x2 = 0.4501	0.8 ± 0.017	0.67 ± 0.014	0.576 ± 0.012
x2 = 0.5	0.827 ± 0.017	0.697 ± 0.015	0.597 ± 0.013
x2 = 0.5499	0.881 ± 0.018	0.731 ± 0.015	0.62 ± 0.013
x2 = 0.6001	0.932 ± 0.019	0.777 ± 0.016	0.648 ± 0.014
x2 = 0.65	1 ± 0.021	0.819 ± 0.017	0.683 ± 0.014
x2 = 0.7	1.08 ± 0.023	0.877 ± 0.018	0.725 ± 0.015
x2 = 0.7499	1.18 ± 0.025	0.949 ± 0.02	0.774 ± 0.016
x2 = 0.8	1.276 ± 0.027	1.052 ± 0.022	0.849 ± 0.018
x2 = 0.8499	1.467 ± 0.031	1.154 ± 0.024	0.915 ± 0.019
x2 = 0.9	1.681 ± 0.035	1.305 ± 0.027	1.021 ± 0.021
x2 = 0.95	1.983 ± 0.041	1.507 ± 0.031	1.16 ± 0.024

CC[N+](=O)[O-] + Cc1ccc(C)cc1
293.15 K, 101.33 kPa
Conditions	viscosity [mPa·s]
x1 = 0.0968	0.633 ± 0.006
x1 = 0.1917	0.629 ± 0.006
x1 = 0.3	0.627 ± 0.006
x1 = 0.4039	0.626 ± 0.006
x1 = 0.4933	0.626 ± 0.006
x1 = 0.6083	0.629 ± 0.006
x1 = 0.6994	0.633 ± 0.006
x1 = 0.7938	0.644 ± 0.007
x1 = 0.9011	0.66 ± 0.007

CCCCCCCCCC(=O)OCC + CCCO
viscosity [mPa·s], 100 kPa
Conditions	x1 = 0.1002	x1 = 0.2005	x1 = 0.2999	x1 = 0.4	x1 = 0.4999	x1 = 0.601	x1 = 0.7	x1 = 0.7998	x1 = 0.9011
293.15 K	2.031 ± 0.024	1.963 ± 0.023	1.956 ± 0.023	1.986 ± 0.024	2.013 ± 0.024	2.057 ± 0.025	2.123 ± 0.026	2.176 ± 0.026	2.25 ± 0.03
298.15 K	1.809 ± 0.021	1.759 ± 0.021	1.757 ± 0.021	1.786 ± 0.021	1.814 ± 0.022	1.854 ± 0.022	1.912 ± 0.023	1.97 ± 0.024	2.029 ± 0.025
303.15 K	1.618 ± 0.019	1.586 ± 0.019	1.587 ± 0.019	1.611 ± 0.019	1.642 ± 0.02	1.681 ± 0.02	1.74 ± 0.021	1.78 ± 0.022	1.845 ± 0.023
308.15 K	1.456 ± 0.017	1.433 ± 0.017	1.438 ± 0.017	1.461 ± 0.017	1.493 ± 0.018	1.53 ± 0.018	1.578 ± 0.019	1.623 ± 0.02	1.681 ± 0.021
313.15 K	1.315 ± 0.015	1.299 ± 0.015	1.309 ± 0.016	1.333 ± 0.016	1.364 ± 0.016	1.403 ± 0.017	1.446 ± 0.018	1.486 ± 0.018	1.538 ± 0.019
318.15 K	1.192 ± 0.014	1.183 ± 0.014	1.196 ± 0.014	1.22 ± 0.015	1.25 ± 0.015	1.285 ± 0.016	1.33 ± 0.016	1.368 ± 0.017	1.415 ± 0.017

CCCCC(CC)COP(=O)(OCC(CC)CCCC)OCC(CC)CCCC (centres undefined) + CCCCCCC
viscosity [mPa·s], 101 kPa
Conditions	x1 = 0.0981	x1 = 0.2035	x1 = 0.2861	x1 = 0.4005	x1 = 0.4721	x1 = 0.5804	x1 = 0.7028	x1 = 0.8061	x1 = 0.9053
298.15 K	0.691 ± 0.006	1.161 ± 0.009	1.648 ± 0.013	2.531 ± 0.019	3.204 ± 0.025	4.44 ± 0.033	6.106 ± 0.044	7.818 ± 0.055	9.599 ± 0.066
303.15 K	0.645 ± 0.005	1.071 ± 0.009	1.509 ± 0.012	2.267 ± 0.017	2.848 ± 0.022	3.886 ± 0.029	5.277 ± 0.039	6.674 ± 0.048	8.111 ± 0.057
308.15 K	0.604 ± 0.005	0.992 ± 0.008	1.377 ± 0.011	2.046 ± 0.016	2.547 ± 0.02	3.434 ± 0.026	4.599 ± 0.034	5.747 ± 0.042	6.914 ± 0.049

CCCC(=O)OCC + CCCCCCC
viscosity [mPa·s], 101.3 kPa
Conditions	308.15 K	318.15 K
x1 = 0.0502	0.356 ± 0.004	0.325 ± 0.003
x1 = 0.1025	0.36 ± 0.004	0.33 ± 0.003
x1 = 0.2204	0.373 ± 0.004	0.344 ± 0.003
x1 = 0.2988	0.383 ± 0.004	0.354 ± 0.004
x1 = 0.3991	0.398 ± 0.004	0.371 ± 0.004
x1 = 0.5188	0.421 ± 0.004	0.393 ± 0.004
x1 = 0.6073	0.442 ± 0.004	0.415 ± 0.004
x1 = 0.6954	0.467 ± 0.004	0.436 ± 0.004
x1 = 0.8003	0.499 ± 0.005	0.469 ± 0.004
x1 = 0.9011	0.544 ± 0.005	0.518 ± 0.005
x1 = 0.9513	0.57 ± 0.005	0.539 ± 0.005
